From US20110008304A1, “USE OF CELLS TO FACILITATE TARGETED DELIVERY OF NANOPARTICLE THERAPIES” (KANSAS STATE UNIVERSITY RESEARCH FOUNDATION, priority 2007, published 2011)
Entries after “also recorded” stand apart in the source; their conditions may differ.

Assays:
[1] = test system: L1210 tumor cells; assay: MTS:PMS viability assay at day 4 in vitro, L1210; type: cell-based; conditions: MTS:PMS assay at day 4 in vitro, means ± SD, n = 3
[2] = test system: HL-60 tumor cells; assay: MTS:PMS viability assay at day 4 in vitro, HL-60; type: cell-based; conditions: MTS:PMS assay at day 4 in vitro, means ± SD, n = 3
[3] = test system: LL/2 tumor cells; assay: MTS:PMS viability assay at day 4 in vitro, LL/2; type: cell-based; conditions: MTS:PMS assay at day 4 in vitro, means ± SD, n = 3
[4] = test system: HL-60; assay: NCI 60 human tumor cell lines, SRB protein assay, HL-60; type: cell-based; conditions: HL-60, SRB protein assay after 2 days; read-out: GI50 (growth inhibition at 50%)
From the text: (§1) An analog of AQ10, AQ9 (NSC 727286), has been evaluated by NCI's 60 human tumor cell lines using the SRB protein assay to estimate cell growth and viability after 2 days. […] AQ10 is less cytotoxic than AQ9 in L1210 and HL60 cell lines (Table 1).

[5] = test system: MOLT-4; assay: NCI 60 human tumor cell lines, SRB protein assay, MOLT-4; type: cell-based; conditions: MOLT-4, SRB protein assay after 2 days; read-out: GI50 (growth inhibition at 50%)
From the text: as §1

[6] = test system: SR; assay: NCI 60 human tumor cell lines, SRB protein assay, SR; type: cell-based; conditions: SRB protein assay after 2 days, read-out: GI50 (growth inhibition at 50%)
From the text: as §1

[7] = test system: K562; assay: NCI 60 human tumor cell lines, SRB protein assay, K562; type: cell-based; conditions: K562, SRB protein assay after 2 days; read-out: GI50 (growth inhibition at 50%)
From the text: as §1

[8] = test system: SN12 C renal; assay: NCI 60 human tumor cell lines, SRB protein assay, SN12 C; type: cell-based; conditions: SRB protein assay after 2 days, read-out: GI50 (growth inhibition at 50%)
From the text: as §1

[9] = test system: HCT-116 colon; assay: NCI 60 human tumor cell lines, SRB protein assay, HCT-116; type: cell-based; conditions: SRB protein assay after 2 days, read-out: GI50 (growth inhibition at 50%)
From the text: as §1

[10] = test system: MDA-MB-231 breast tumor cell line; assay: NCI 60 human tumor cell lines, SRB protein assay, MDA-MB-231; type: cell-based; conditions: SRB protein assay after 2 days, read-out: GI50 (growth inhibition at 50%)
From the text: as §1
(§2) Similarly TT compounds such as TT24 were synthesized from TT2 and evaluated for their antitumor activities (Hua et al. 2004. Tetrandedron 60:10155-63, Hua et al. […], Hua et al. 2006. Anticancer Agents Med. Chem. 6:303-18, Wang et al. 2002. Cancer Lett. 188:73-83). Selective bromination of TT2 with N-bromosuccinimide (NBS) in DMF followed by addition of allylmethylamine and removal of the allyl protecting group with Pd(PPh3)4 afforded TT24. TT24 (NSC 727284-K), has been evaluated by NCI's 60 human tumor cell lines using the SRB protein assay to estimate cell growth and viability after 2 days.

[11] = test system: Pan 02 cells; assay: Pan 02 cell viability, MTT assay; type: cell-based, mouse
Protocol: Cell proliferation evaluation. The number of viable cells was evaluated by the MTT ([…]-2,5-diphenyl-tetrazolium bromide) assay (Roche Diagnostics GmbH, Germany) as well as hemocytometer and trypan blue exclusion analysis. Pan 02 cells were seeded in a 96 well plate. […] After incubation for 48 hrs, the medium was replaced with fresh medium containing 0.5 mg of MTT reagent per ml of medium and incubated for four hours at 37° C. Then, 100 μL of solubilization reagent was added to each well and incubated overnight at 37° C. Absorbance was measured in an ELISA plate reader at 550 nm, with the absorbance at 690 nm to correct for background, and viability was expressed as the percentage of untreated controls. To validate the MTT assay, trypan blue exclusion and hemocytometer counting assay was performed in parallel. All experiments were done in duplicate and were performed three times.
Statistical analysis. All values are expressed as means ±SE. Values of untreated cells were taken as […]. Statistical analysis of all Pan 02 cell proliferation assays were analyzed using repeated measures of ANOVA. […] Statistical significance was considered if P<0.05.

[12] = Solubility in water / encapsulation; type: physicochemical
[13] = test system: TK+UCMS cells; assay: Cell number of TK+UCMS cells exposed to pro-drug; type: cell-based; conditions: dose range of 0 μM to 1600 μM
From the text: UCMS cells have been successfully engineered for stable expression of HSV-thymidine kinase. […] Thus, the suicide gene system is effective; after GCV administration to mice bearing tumors into which the UCMS-NG-TH (UCMS cells containing nanogels loaded with therapeutic agents) have trafficked, the NG-TH will be released into the tumor interstitium when the stem cells undergo apoptosis.

[14] = test system: T47D breast tumor cell line; assay: NCI 60 human tumor cell lines, SRB protein assay, T47D; type: cell-based; conditions: SRB protein assay after 2 days, read-out: GI50 (growth inhibition at 50%)
From the text: as §2

[15] = test system: NCI/ADR-RES; assay: NCI 60 human tumor cell lines, SRB protein assay, NCI/ADR-RES; type: cell-based; conditions: NCI/ADR-RES breast, SRB protein assay after 2 days; read-out: GI50 (growth inhibition at 50%)
From the text: as §2

[16] = test system: L1210 cells; assay: Inhibition of L1210 cells by TT24; type: cell-based
[17] = Anti-cancer effect of drug-loaded nanogels, test not specified; type: cell-based

Q: Which IC50 [1] does the source give for `O=C1C=CC(=O)c2cc3cc(CBr)ccc3cc21` [AQ9] here?
A: 26 ± 1 nM

Q: And the IC50 [2]?
A: 79 ± 3 nM

Q: What about the IC50 [3] of the same compound?
A: 680 ± 87 nM

Q: What about the GI50 [4] of the same compound?
A: < 10 nM

Q: And the GI50 [5]?
A: < 10 nM

Q: What about the GI50 [6] of the same compound?
A: 37.1 nM

Q: What about the GI50 [7] of the same compound?
A: 339 nM

Q: What about the GI50 [8] of the same compound?
A: 379 nM

Q: What about the GI50 [9] of the same compound?
A: 606 nM

Q: What about the GI50 [10] of the same compound?
A: 735 nM

Q: Which IC50 ([1]; Mus musculus, L1210, 96 h) does the source give for `O=C1C=CC(=O)c2cc3cc(CO)ccc3cc21` [AQ10, 6-(hydroxymethyl)-1,4-anthracenedione] here?
A: 37 ± 2 nM

Q: What about the IC50 ([2]; Homo sapiens, HL-60, 96 h) of the same compound?
A: 125 ± 7 nM

Q: What about the IC50 ([3]; LL/2, 96 h) of the same compound?
A: 494 ± 59 nM

Q: And the “Effect of AQ10 dissolved in DMSO on Pan 02 cell viability / growth” value ([11]; MTT assay, 48 hrs, doses of 4.2, 8.4 and 16.8 μM, vs untreated and DMSO treated cells)?
A: significantly attenuated; also recorded: significant effect; also recorded: significantly decreased

Q: And the “Growth attenuation of Pan 02 cells, AQ10 in nanogel PEG-PEI relative to AQ10 alone (in DMSO)” value ([11]; comparison of AQ10-nanogel PEG-PEI with AQ10 alone)?
A: three to four times less effective

Q: What about the Solubility in water [12] of the same compound?
A: insoluble

Q: For `Nc1nc(O)c2ncn(COC(CO)CO)c2n1` [Ganciclovir], which “Cell number of TK+UCMS cells” value [13] is on record?
A: Decreased cell number

Q: For `CNC1=CC(=O)C2=C(C1=O)C1C3=C(C(=O)C(Br)=C(OC)C3=O)C2c2ccccc21` (stereo not shown) [TT24], which GI50 [10] is on record?
A: 1410 nM

Q: And the GI50 [14]?
A: 1440 nM

Q: And the GI50 [15]?
A: 1550 nM

Q: What about the IC50 [16] of the same compound?
A: 48 nM

Q: For Triton, which “Anti-cancer / antitumor effect” value [17] is on record?
A: significantly potentiated the anti-cancer effect
